According to the kinase profiling compilation of Christmann-Franck et al. (2016):
Where “and” joins values, the source holds several entries; their conditions need not be identical. Equal entries are not always repeated.

Legend:
Assay in all cases: KINOMEscan competition binding
Conditions in all cases: compound 10.0 µM
NTRK3 (human) = NTRK3 (human) (UniProt Q16288)
LYN (human) = LYN (human) (UniProt P07948)
MAPKAPK5 (human) = MAPKAPK5 (human) (UniProt Q8IW41)
CDK3 (human) = CDK3 (human) (UniProt Q00526)
FGR (human) = FGR (human) (UniProt P09769)
MARK2 (human) = MARK2 (human) (UniProt Q7KZI7)
MAP4K2 (human) = MAP4K2 (human) (UniProt Q12851)
CDK2 (human) = CDK2 (human) (UniProt P24941)
MYLK4 (human) = MYLK4 (human) (UniProt Q86YV6)
CAMK4 (human) = CAMK4 (human) (UniProt Q16566)
CDKL1 (human) = CDKL1 (human) (UniProt Q00532)
LATS2 (human) = LATS2 (human) (UniProt Q9NRM7)
RIOK3 (human) = RIOK3 (human) (UniProt O14730)
STK17B (human) = STK17B (human) (UniProt O94768)
CAMK2D (human) = CAMK2D (human) (UniProt Q13557)
[1] = biological target: TYK2 JH2 pseudokinase (human) (UniProt P29597)
MAP3K5 (human) = MAP3K5 (human) (UniProt Q99683)
NEK2 (human) = NEK2 (human) (UniProt P51955)
CAMK1D (human) = CAMK1D (human) (UniProt Q8IU85)
STK17A (human) = STK17A (human) (UniProt Q9UEE5)
CAMK2G (human) = CAMK2G (human) (UniProt Q13555)
STK32B (human) = STK32B (human) (UniProt Q9NY57)
[2] = test system: MET (human), P08581 [M1250T]
CDKL5 (human) = CDKL5 (human) (UniProt O76039)
BMPR1B (human) = BMPR1B (human) (UniProt O00238)
DYRK2 (human) = DYRK2 (human) (UniProt Q92630)
CAMKK2 (human) = CAMKK2 (human) (UniProt Q96RR4)
IRAK3 (human) = IRAK3 (human) (UniProt Q9Y616)
DDR2 (human) = DDR2 (human) (UniProt Q16832)
TYRO3 (human) = TYRO3 (human) (UniProt Q06418)
[3] = test system: FGFR3 (human), P22607 [G697C]
DCLK2 (human) = DCLK2 (human) (UniProt Q8N568)
MAP4K4 (human) = MAP4K4 (human) (UniProt O95819)
MINK1 (human) = MINK1 (human) (UniProt Q8N4C8)
CSNK1A1L (human) = CSNK1A1L (human) (UniProt Q8N752)
PRKD3 (human) = PRKD3 (human) (UniProt O94806)
PHKG1 (human) = PHKG1 (human) (UniProt Q16816)
SGK3 (human) = SGK3 (human) (UniProt Q96BR1)
FER (human) = FER (human) (UniProt P16591)
[4] = biological target: JAK3 JH1 catalytic (human) (UniProt P52333)

Chain of MYLK4 (human) (Q86YV6 whole entry, looked up): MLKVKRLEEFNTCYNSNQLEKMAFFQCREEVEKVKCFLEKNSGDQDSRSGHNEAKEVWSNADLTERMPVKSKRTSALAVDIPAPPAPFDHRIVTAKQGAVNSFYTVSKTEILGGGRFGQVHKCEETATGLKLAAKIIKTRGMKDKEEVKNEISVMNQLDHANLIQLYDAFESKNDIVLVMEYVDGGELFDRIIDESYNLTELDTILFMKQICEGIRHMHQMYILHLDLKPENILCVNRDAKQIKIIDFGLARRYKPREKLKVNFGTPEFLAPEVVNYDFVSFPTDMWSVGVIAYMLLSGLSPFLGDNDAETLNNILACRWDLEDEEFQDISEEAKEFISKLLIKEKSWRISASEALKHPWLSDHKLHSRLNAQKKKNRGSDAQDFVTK
Chain of TYK2 JH2 pseudokinase (human) (P29597 whole entry, looked up): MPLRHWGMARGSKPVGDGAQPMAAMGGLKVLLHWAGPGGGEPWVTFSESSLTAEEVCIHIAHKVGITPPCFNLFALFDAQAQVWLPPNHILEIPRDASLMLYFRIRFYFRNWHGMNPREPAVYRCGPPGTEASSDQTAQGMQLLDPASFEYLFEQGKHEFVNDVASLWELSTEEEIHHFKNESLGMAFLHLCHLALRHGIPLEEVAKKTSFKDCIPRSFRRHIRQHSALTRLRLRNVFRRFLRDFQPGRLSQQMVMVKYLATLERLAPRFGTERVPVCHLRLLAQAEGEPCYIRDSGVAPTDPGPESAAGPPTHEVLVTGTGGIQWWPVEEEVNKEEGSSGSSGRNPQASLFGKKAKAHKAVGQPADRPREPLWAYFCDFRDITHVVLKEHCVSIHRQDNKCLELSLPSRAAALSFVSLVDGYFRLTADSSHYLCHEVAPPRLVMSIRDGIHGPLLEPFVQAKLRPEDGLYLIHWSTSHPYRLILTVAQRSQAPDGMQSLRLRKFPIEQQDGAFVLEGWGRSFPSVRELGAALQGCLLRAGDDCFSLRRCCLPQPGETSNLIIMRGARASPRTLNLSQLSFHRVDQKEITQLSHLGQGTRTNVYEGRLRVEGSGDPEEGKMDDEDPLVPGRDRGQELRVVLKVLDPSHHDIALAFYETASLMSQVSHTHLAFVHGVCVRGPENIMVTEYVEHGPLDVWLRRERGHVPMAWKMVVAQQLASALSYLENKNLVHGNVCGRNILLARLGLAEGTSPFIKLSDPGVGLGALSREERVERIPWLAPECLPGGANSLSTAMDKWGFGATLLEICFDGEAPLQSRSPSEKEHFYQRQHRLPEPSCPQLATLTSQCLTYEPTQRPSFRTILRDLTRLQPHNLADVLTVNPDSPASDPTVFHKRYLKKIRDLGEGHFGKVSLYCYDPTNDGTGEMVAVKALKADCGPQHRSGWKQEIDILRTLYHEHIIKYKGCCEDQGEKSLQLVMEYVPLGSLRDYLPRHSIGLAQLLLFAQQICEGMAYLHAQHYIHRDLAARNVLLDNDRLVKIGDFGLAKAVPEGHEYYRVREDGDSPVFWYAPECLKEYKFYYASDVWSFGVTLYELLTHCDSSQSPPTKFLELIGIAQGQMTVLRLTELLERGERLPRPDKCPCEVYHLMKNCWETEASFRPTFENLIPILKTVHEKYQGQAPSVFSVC
Chain of CAMK2G (human) (Q13555 whole entry, looked up): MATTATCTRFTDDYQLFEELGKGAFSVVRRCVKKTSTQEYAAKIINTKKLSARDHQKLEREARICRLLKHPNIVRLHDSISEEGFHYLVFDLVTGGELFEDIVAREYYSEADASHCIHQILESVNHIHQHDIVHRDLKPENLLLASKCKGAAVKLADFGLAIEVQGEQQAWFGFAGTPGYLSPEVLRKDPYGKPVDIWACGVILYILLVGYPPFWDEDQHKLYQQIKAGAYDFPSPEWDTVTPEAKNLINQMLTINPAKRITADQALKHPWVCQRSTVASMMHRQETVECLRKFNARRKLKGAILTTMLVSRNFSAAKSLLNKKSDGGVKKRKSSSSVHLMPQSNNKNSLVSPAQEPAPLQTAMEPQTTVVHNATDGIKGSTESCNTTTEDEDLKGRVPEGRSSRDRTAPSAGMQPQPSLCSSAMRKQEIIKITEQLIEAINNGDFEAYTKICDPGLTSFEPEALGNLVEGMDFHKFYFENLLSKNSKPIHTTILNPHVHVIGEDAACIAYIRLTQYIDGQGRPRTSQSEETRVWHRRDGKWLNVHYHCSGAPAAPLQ
Chain of MAP4K2 (human) (Q12851 whole entry, looked up): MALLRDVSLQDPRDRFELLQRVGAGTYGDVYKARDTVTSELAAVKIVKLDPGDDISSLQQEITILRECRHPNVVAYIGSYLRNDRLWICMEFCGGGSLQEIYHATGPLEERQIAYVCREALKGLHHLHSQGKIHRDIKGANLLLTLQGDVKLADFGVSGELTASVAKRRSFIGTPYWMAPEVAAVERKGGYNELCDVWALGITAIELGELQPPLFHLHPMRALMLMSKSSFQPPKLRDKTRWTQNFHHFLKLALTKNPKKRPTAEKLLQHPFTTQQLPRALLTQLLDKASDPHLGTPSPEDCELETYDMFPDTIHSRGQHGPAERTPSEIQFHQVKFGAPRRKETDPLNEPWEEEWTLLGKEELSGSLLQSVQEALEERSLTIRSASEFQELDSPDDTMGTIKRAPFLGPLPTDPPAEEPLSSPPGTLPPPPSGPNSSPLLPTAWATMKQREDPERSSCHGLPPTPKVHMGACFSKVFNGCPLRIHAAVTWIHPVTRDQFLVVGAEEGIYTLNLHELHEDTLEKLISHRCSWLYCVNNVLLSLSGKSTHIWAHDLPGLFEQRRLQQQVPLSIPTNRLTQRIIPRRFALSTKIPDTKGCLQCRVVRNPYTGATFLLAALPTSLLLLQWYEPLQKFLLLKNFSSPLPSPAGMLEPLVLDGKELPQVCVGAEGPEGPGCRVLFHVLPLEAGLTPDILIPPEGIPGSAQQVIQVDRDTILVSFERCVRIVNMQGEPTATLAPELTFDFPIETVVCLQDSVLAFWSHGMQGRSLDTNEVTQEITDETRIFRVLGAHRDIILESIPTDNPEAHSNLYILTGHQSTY
Chain of CDKL5 (human) (O76039 whole entry, looked up): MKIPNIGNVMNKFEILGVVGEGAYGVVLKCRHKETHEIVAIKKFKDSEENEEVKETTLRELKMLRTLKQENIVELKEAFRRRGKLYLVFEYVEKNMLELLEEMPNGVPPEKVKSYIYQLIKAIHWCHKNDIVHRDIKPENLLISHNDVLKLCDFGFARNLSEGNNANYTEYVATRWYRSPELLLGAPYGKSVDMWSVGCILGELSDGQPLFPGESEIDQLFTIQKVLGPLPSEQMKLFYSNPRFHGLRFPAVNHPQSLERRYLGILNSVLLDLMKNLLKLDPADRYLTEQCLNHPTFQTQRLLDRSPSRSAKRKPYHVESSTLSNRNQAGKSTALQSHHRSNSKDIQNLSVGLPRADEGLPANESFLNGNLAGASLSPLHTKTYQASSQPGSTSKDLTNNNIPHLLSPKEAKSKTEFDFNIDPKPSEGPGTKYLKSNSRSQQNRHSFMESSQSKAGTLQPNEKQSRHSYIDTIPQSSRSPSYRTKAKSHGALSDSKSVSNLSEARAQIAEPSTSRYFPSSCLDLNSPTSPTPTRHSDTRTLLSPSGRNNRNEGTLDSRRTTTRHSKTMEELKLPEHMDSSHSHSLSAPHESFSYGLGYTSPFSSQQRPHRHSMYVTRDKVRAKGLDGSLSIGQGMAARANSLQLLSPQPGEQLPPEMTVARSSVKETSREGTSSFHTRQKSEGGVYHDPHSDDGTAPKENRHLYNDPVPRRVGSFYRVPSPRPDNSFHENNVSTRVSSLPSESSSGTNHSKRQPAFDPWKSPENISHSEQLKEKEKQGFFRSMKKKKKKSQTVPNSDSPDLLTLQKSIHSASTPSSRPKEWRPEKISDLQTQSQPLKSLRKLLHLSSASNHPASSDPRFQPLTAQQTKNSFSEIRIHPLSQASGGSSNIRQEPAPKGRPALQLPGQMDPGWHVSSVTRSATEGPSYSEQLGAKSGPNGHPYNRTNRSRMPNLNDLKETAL
Chain of CDKL1 (human) (Q00532 whole entry, looked up): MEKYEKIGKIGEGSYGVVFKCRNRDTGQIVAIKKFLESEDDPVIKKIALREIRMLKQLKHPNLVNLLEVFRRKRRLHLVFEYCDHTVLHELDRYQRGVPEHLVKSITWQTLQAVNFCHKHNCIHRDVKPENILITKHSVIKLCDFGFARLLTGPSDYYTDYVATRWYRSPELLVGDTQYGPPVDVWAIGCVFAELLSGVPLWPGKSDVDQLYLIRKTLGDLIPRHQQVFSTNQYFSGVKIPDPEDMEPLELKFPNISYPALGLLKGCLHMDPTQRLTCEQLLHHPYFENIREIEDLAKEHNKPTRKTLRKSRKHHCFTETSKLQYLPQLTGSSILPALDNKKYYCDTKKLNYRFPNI
Chain of MAPKAPK5 (human) (Q8IW41 whole entry, looked up): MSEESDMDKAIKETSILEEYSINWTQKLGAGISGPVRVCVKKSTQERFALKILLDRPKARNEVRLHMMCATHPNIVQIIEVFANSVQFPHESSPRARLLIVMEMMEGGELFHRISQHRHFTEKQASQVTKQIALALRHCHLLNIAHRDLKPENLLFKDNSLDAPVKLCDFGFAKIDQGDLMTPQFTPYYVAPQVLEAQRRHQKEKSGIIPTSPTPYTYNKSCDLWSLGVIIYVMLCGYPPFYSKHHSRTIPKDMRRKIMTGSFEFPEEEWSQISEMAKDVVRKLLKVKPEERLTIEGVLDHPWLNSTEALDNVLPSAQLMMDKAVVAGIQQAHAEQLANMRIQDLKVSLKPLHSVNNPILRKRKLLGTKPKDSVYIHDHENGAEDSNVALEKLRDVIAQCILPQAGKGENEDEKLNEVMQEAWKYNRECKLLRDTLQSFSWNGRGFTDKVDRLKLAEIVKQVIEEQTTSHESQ
Chain of CDK3 (human) (Q00526 whole entry, looked up): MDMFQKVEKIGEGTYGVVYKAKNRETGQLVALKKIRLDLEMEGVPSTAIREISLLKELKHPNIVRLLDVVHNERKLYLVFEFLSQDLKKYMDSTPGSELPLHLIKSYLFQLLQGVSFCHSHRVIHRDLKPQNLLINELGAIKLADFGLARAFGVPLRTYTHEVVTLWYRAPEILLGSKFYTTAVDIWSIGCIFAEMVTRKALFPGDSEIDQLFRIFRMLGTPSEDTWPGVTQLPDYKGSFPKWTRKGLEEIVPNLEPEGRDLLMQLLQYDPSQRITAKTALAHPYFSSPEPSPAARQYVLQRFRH

For `CC1=C(C(=O)Nc2cc3cn[nH]c3cc2F)C(c2ccc(C(F)(F)F)cc2)CC(=O)N1` (stereo not drawn), the kinase still bound, per cent of control (NTRK3 (human)) was 100%, the kinase still bound, per cent of control (LYN (human)) was 72% and the kinase still bound, per cent of control (MAPKAPK5 (human)) was 100%. It also gave a kinase still bound, per cent of control (CDK3 (human)) of 77%, a kinase still bound, per cent of control (FGR (human)) of 78% and a kinase still bound, per cent of control (MARK2 (human)) of 99%. The kinase still bound, per cent of control (MAP4K2 (human)) was 96%, the kinase still bound, per cent of control (CDK2 (human)) was 79% and the kinase still bound, per cent of control (MYLK4 (human)) was 88%. For the same compound, the kinase still bound, per cent of control (CAMK4 (human)) was 100%, the kinase still bound, per cent of control (CDKL1 (human)) was 78% and the kinase still bound, per cent of control (LATS2 (human)) was 10%. It also gave a kinase still bound, per cent of control (RIOK3 (human)) of 100%, a kinase still bound, per cent of control (STK17B (human)) of 100% and a kinase still bound, per cent of control (CAMK2D (human)) of 100%. For the same compound, the kinase still bound, per cent of control [1] was 100%, the kinase still bound, per cent of control (MAP3K5 (human)) was 100% and the kinase still bound, per cent of control (NEK2 (human)) was 100%. It also gave a kinase still bound, per cent of control (CAMK1D (human)) of 97%, a kinase still bound, per cent of control (STK17A (human)) of 95% and a kinase still bound, per cent of control (CAMK2G (human)) of 97%. For the same compound, the kinase still bound, per cent of control (STK32B (human)) was 52%, the kinase still bound, per cent of control [2] was 23% and the kinase still bound, per cent of control (CDKL5 (human)) was 45%. The kinase still bound, per cent of control (BMPR1B (human)) was 65%, the kinase still bound, per cent of control (DYRK2 (human)) was 100% and the kinase still bound, per cent of control (CAMKK2 (human)) was 55%. It also gave a kinase still bound, per cent of control (IRAK3 (human)) of 85%, a kinase still bound, per cent of control (DDR2 (human)) of 100% and a kinase still bound, per cent of control (TYRO3 (human)) of 100%. It also gave a kinase still bound, per cent of control [3] of 84%, a kinase still bound, per cent of control (DCLK2 (human)) of 87% and a kinase still bound, per cent of control (MAP4K4 (human)) of 78%. The kinase still bound, per cent of control (MINK1 (human)) was 71%, the kinase still bound, per cent of control (CSNK1A1L (human)) was 98% and the kinase still bound, per cent of control (PRKD3 (human)) was 81%. The kinase still bound, per cent of control (PHKG1 (human)) was 100%, the kinase still bound, per cent of control (SGK3 (human)) was 100% and the kinase still bound, per cent of control (FER (human)) was 100%.
`CCN(CCO)CCCOc1ccc2c(Nc3cc(CC(=O)Nc4cccc(F)c4)[nH]n3)ncnc2c1` showed a kinase still bound, per cent of control (NTRK3 (human)) of 56%, a kinase still bound, per cent of control (LYN (human)) of 18% and a kinase still bound, per cent of control (MAPKAPK5 (human)) of 100%. The kinase still bound, per cent of control (CDK3 (human)) was 95%, the kinase still bound, per cent of control (FGR (human)) was 82% and the kinase still bound, per cent of control (MARK2 (human)) was 80%. For the same compound, the kinase still bound, per cent of control (MAP4K2 (human)) was 29%, the kinase still bound, per cent of control (CDK2 (human)) was 84% and the kinase still bound, per cent of control (CAMK4 (human)) was 100%. The kinase still bound, per cent of control (CDKL1 (human)) was 84%, the kinase still bound, per cent of control (LATS2 (human)) was 52% and the kinase still bound, per cent of control (RIOK3 (human)) was 100%. For the same compound, the kinase still bound, per cent of control (STK17B (human)) was 93%, the kinase still bound, per cent of control (CAMK2D (human)) was 93% and the kinase still bound, per cent of control [1] was 98%. The kinase still bound, per cent of control (MAP3K5 (human)) was 100%, the kinase still bound, per cent of control (NEK2 (human)) was 83% and the kinase still bound, per cent of control (CAMK1D (human)) was 83%. It also gave a kinase still bound, per cent of control (STK17A (human)) of 46%, a kinase still bound, per cent of control (CAMK2G (human)) of 100% and a kinase still bound, per cent of control [4] of 87%. It also gave a kinase still bound, per cent of control (STK32B (human)) of 100%, a kinase still bound, per cent of control [2] of 52% and a kinase still bound, per cent of control (CDKL5 (human)) of 50%. The kinase still bound, per cent of control (BMPR1B (human)) was 77%, the kinase still bound, per cent of control (DYRK2 (human)) was 73% and the kinase still bound, per cent of control (CAMKK2 (human)) was 100%. It also gave a kinase still bound, per cent of control (IRAK3 (human)) of 37%, a kinase still bound, per cent of control (DDR2 (human)) of 27% and a kinase still bound, per cent of control (TYRO3 (human)) of 100%. It also gave a kinase still bound, per cent of control [3] of 100%, a kinase still bound, per cent of control (DCLK2 (human)) of 100% and a kinase still bound, per cent of control (MAP4K4 (human)) of 98%. The kinase still bound, per cent of control (MINK1 (human)) was 25%, the kinase still bound, per cent of control (CSNK1A1L (human)) was 99% and the kinase still bound, per cent of control (PRKD3 (human)) was 63%. For the same compound, the kinase still bound, per cent of control (PHKG1 (human)) was 35%, the kinase still bound, per cent of control (SGK3 (human)) was 100% and the kinase still bound, per cent of control (FER (human)) was 100%.
With `COc1cc2ncnc(Nc3cccc(Cl)c3)c2cc1OC` the kinase still bound, per cent of control (NTRK3 (human)) was 87%, the kinase still bound, per cent of control (LYN (human)) was 11% and the kinase still bound, per cent of control (MAPKAPK5 (human)) was 9.9%. For the same compound, the kinase still bound, per cent of control (CDK3 (human)) was 100%, the kinase still bound, per cent of control (FGR (human)) was 32% and the kinase still bound, per cent of control (MARK2 (human)) was 74%. It also gave a kinase still bound, per cent of control (MAP4K2 (human)) of 36%, a kinase still bound, per cent of control (CDK2 (human)) of 100% and a kinase still bound, per cent of control (MYLK4 (human)) of 78%. The kinase still bound, per cent of control (CAMK4 (human)) was 100%, the kinase still bound, per cent of control (CDKL1 (human)) was 90% and the kinase still bound, per cent of control (LATS2 (human)) was 40%. The kinase still bound, per cent of control (RIOK3 (human)) was 78%, the kinase still bound, per cent of control (STK17B (human)) was 40% and the kinase still bound, per cent of control (CAMK2D (human)) was 61%. For the same compound, the kinase still bound, per cent of control [1] was 55%, the kinase still bound, per cent of control (MAP3K5 (human)) was 74% and the kinase still bound, per cent of control (NEK2 (human)) was 92%. For the same compound, the kinase still bound, per cent of control (CAMK1D (human)) was 83%, the kinase still bound, per cent of control (STK17A (human)) was 19% and the kinase still bound, per cent of control (CAMK2G (human)) was 77%. For the same compound, the kinase still bound, per cent of control [4] was 38%, the kinase still bound, per cent of control (STK32B (human)) was 100% and the kinase still bound, per cent of control [2] was 94%. The kinase still bound, per cent of control (CDKL5 (human)) was 97%, the kinase still bound, per cent of control (BMPR1B (human)) was 62% and the kinase still bound, per cent of control (DYRK2 (human)) was 27%. It also gave a kinase still bound, per cent of control (CAMKK2 (human)) of 72%, a kinase still bound, per cent of control (IRAK3 (human)) of 30% and a kinase still bound, per cent of control (DDR2 (human)) of 42%. The kinase still bound, per cent of control (TYRO3 (human)) was 23%, the kinase still bound, per cent of control [3] was 100% and the kinase still bound, per cent of control (DCLK2 (human)) was 88%. For the same compound, the kinase still bound, per cent of control (MINK1 (human)) was 37%, the kinase still bound, per cent of control (CSNK1A1L (human)) was 72% and the kinase still bound, per cent of control (PRKD3 (human)) was 88%. The kinase still bound, per cent of control (PHKG1 (human)) was 67%, the kinase still bound, per cent of control (SGK3 (human)) was 65% and 84% and the kinase still bound, per cent of control (FER (human)) was 82%.
`CC(=O)c1c(C)c2cnc(Nc3ccc(N4CCNCC4)cn3)nc2n(C2CCCC2)c1=O` gave a kinase still bound, per cent of control (NTRK3 (human)) of 23%, a kinase still bound, per cent of control (CDK3 (human)) of 74% and a kinase still bound, per cent of control (FGR (human)) of 71%. It also gave a kinase still bound, per cent of control (MARK2 (human)) of 28%, a kinase still bound, per cent of control (MAP4K2 (human)) of 52% and a kinase still bound, per cent of control (CDK2 (human)) of 20%. For the same compound, the kinase still bound, per cent of control (MYLK4 (human)) was 35%, the kinase still bound, per cent of control (CDKL1 (human)) was 35% and the kinase still bound, per cent of control (LATS2 (human)) was 42%. For the same compound, the kinase still bound, per cent of control (RIOK3 (human)) was 64%, the kinase still bound, per cent of control (CAMK2D (human)) was 6.8% and the kinase still bound, per cent of control (NEK2 (human)) was 31%. For the same compound, the kinase still bound, per cent of control (CAMK1D (human)) was 7.3%, the kinase still bound, per cent of control (CAMK2G (human)) was 11% and the kinase still bound, per cent of control [4] was 8.5%. It also gave a kinase still bound, per cent of control [2] of 41%, a kinase still bound, per cent of control (CDKL5 (human)) of 1% and a kinase still bound, per cent of control (BMPR1B (human)) of 50%. For the same compound, the kinase still bound, per cent of control (DYRK2 (human)) was 5.5%, the kinase still bound, per cent of control (CAMKK2 (human)) was 20% and the kinase still bound, per cent of control (IRAK3 (human)) was 36%. For the same compound, the kinase still bound, per cent of control (DDR2 (human)) was 56%, the kinase still bound, per cent of control (TYRO3 (human)) was 93% and the kinase still bound, per cent of control (DCLK2 (human)) was 2.9%. It also gave a kinase still bound, per cent of control (MAP4K4 (human)) of 23%, a kinase still bound, per cent of control (MINK1 (human)) of 7.6% and a kinase still bound, per cent of control (CSNK1A1L (human)) of 62%. For the same compound, the kinase still bound, per cent of control (PRKD3 (human)) was 0.75%, the kinase still bound, per cent of control (PHKG1 (human)) was 18% and the kinase still bound, per cent of control (SGK3 (human)) was 53%. The kinase still bound, per cent of control (FER (human)) was 47%.
